Experimental data from PubChem BioAssay (NCI).
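Interpolation was linear, between the two tested concentrations surrounding the appropriate level; five concentrations were tested over 48 hours in 96-well plates. GI50 is the concentration that inhibits growth by half. TGI: total growth inhibition.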

Columns and labels:
Test in all cases: NCI-60 cell line screen, 48 h
SR leukemia = tested on: SR leukemia
KM12 colon = tested on: KM12 colon
MCF7 breast = tested on: MCF7 breast
HCT-15 colon = tested on: HCT-15 colon
SK-OV-3 ovarian = tested on: SK-OV-3 ovarian
SN12C renal = tested on: SN12C renal
RPMI-8226 leukemia = tested on: RPMI-8226 leukemia
SK-MEL-2 melanoma = tested on: SK-MEL-2 melanoma
UO-31 renal = tested on: UO-31 renal
COLO 205 colon = tested on: COLO 205 colon
HCT-116 colon = tested on: HCT-116 colon
OVCAR-5 ovarian = tested on: OVCAR-5 ovarian
UACC-62 melanoma = tested on: UACC-62 melanoma
K-562 leukemia = tested on: K-562 leukemia
SNB-75 CNS = tested on: SNB-75 CNS
SF-295 CNS = tested on: SF-295 CNS
MOLT-4 leukemia = tested on: MOLT-4 leukemia
HL-60(TB) leukemia = tested on: HL-60(TB) leukemia
SNB-19 CNS = tested on: SNB-19 CNS
DU-145 prostate = tested on: DU-145 prostate
NCI-H23 lung = tested on: NCI-H23 lung
HOP-62 NSCLC = tested on: HOP-62 NSCLC
HOP-92 NSCLC = tested on: HOP-92 NSCLC
M14 melanoma = tested on: M14 melanoma
A549 NSCLC = tested on: A549 NSCLC
OVCAR-3 ovarian = tested on: OVCAR-3 ovarian
SW-620 colon = tested on: SW-620 colon
OVCAR-4 ovarian = tested on: OVCAR-4 ovarian
ACHN renal = tested on: ACHN renal
NCI/ADR-RES ovarian = tested on: NCI/ADR-RES ovarian
LOX IMVI melanoma = tested on: LOX IMVI melanoma
A498 renal = tested on: A498 renal
T-47D breast = tested on: T-47D breast
NCI-H226 lung = tested on: NCI-H226 lung
MALME-3M melanoma = tested on: MALME-3M melanoma
HT29 colon = tested on: HT29 colon
786-0 renal = tested on: 786-0 renal
SK-MEL-5 melanoma = tested on: SK-MEL-5 melanoma
MDA-MB-435 = tested on: MDA-MB-435
SF-539 CNS = tested on: SF-539 CNS
TK-10 renal = tested on: TK-10 renal
IGROV1 ovarian = tested on: IGROV1 ovarian
NCI-H522 lung = tested on: NCI-H522 lung
CCRF-CEM leukemia = tested on: CCRF-CEM leukemia
SK-MEL-28 melanoma = tested on: SK-MEL-28 melanoma
SF-268 CNS = tested on: SF-268 CNS
PC-3 prostate = tested on: PC-3 prostate
EKVX NSCLC = tested on: EKVX NSCLC
BT-549 breast = tested on: BT-549 breast
NCI-H460 lung = tested on: NCI-H460 lung
HS 578T breast = tested on: HS 578T breast
U251 CNS = tested on: U251 CNS
RXF 393 renal = tested on: RXF 393 renal
OVCAR-8 ovarian = tested on: OVCAR-8 ovarian
CAKI-1 renal = tested on: CAKI-1 renal
MDA-MB-231 breast = tested on: MDA-MB-231 breast
UACC-257 melanoma = tested on: UACC-257 melanoma
HCC-2998 colon = tested on: HCC-2998 colon

## CCOC(=O)C1=C(C)NC(=O)NC1c1coc2cc(C)cc(C)c2c1=O (stereo unspecified)
SR leukemia
  TGI: > 79.8 µM
KM12 colon
  TGI: > 100 µM
MCF7 breast
  TGI: > 100 µM
HCT-15 colon
  TGI: > 100 µM
SK-OV-3 ovarian
  TGI: > 100 µM
SN12C renal
  TGI: > 100 µM
RPMI-8226 leukemia
  TGI: > 100 µM
SK-MEL-2 melanoma
  TGI: 99.5 µM
UO-31 renal
  TGI: > 100 µM
COLO 205 colon
  TGI: > 100 µM
HCT-116 colon
  TGI: > 100 µM
OVCAR-5 ovarian
  TGI: > 100 µM
UACC-62 melanoma
  TGI: > 100 µM
K-562 leukemia
  TGI: > 100 µM
SNB-75 CNS
  TGI: > 100 µM
SF-295 CNS
  TGI: > 100 µM
MOLT-4 leukemia
  TGI: > 100 µM
HL-60(TB) leukemia
  TGI: > 100 µM
SNB-19 CNS
  TGI: > 100 µM
DU-145 prostate
  TGI: > 100 µM
NCI-H23 lung
  TGI: > 100 µM
HOP-62 NSCLC
  TGI: > 100 µM
HOP-92 NSCLC
  TGI: > 100 µM
M14 melanoma
  TGI: > 100 µM
A549 NSCLC
  TGI: > 100 µM
OVCAR-3 ovarian
  TGI: > 70.5 µM
SW-620 colon
  TGI: > 100 µM
OVCAR-4 ovarian
  TGI: > 100 µM
ACHN renal
  TGI: > 100 µM
NCI/ADR-RES ovarian
  TGI: > 100 µM
LOX IMVI melanoma
  TGI: > 100 µM
A498 renal
  TGI: > 100 µM
T-47D breast
  TGI: > 100 µM
NCI-H226 lung
  TGI: > 100 µM
MALME-3M melanoma
  TGI: > 100 µM
HT29 colon
  TGI: > 100 µM
786-0 renal
  TGI: > 100 µM
SK-MEL-5 melanoma
  TGI: > 100 µM
MDA-MB-435
  TGI: 45.4 µM
SF-539 CNS
  TGI: > 100 µM
TK-10 renal
  TGI: > 100 µM
IGROV1 ovarian
  TGI: > 100 µM
NCI-H522 lung
  TGI: 14.5 µM
CCRF-CEM leukemia
  TGI: > 100 µM
SK-MEL-28 melanoma
  TGI: > 100 µM
SF-268 CNS
  TGI: > 100 µM
PC-3 prostate
  TGI: > 100 µM
EKVX NSCLC
  TGI: > 100 µM
BT-549 breast
  TGI: > 100 µM
NCI-H460 lung
  TGI: > 100 µM
HS 578T breast
  TGI: > 100 µM
U251 CNS
  TGI: > 100 µM
RXF 393 renal
  TGI: > 100 µM
OVCAR-8 ovarian
  TGI: > 100 µM
CAKI-1 renal
  TGI: > 100 µM
MDA-MB-231 breast
  TGI: > 100 µM
UACC-257 melanoma
  TGI: > 100 µM

## COc1ccc(-c2nn(-c3cccc(NC(=O)Nc4cc(C(F)(F)F)cc(C(F)(F)F)c4)c3)cc2-c2ccncc2)cc1Cl
SR leukemia
  GI50: 1.02 µM
  TGI: 3.13 µM
KM12 colon
  GI50: 1.09 µM
  TGI: 4.17 µM
MCF7 breast
  GI50: 1.01 µM
  TGI: 5.98 µM
HCT-15 colon
  GI50: 0.962 µM
  TGI: 4.08 µM
SK-OV-3 ovarian
  GI50: 1.52 µM
  TGI: 7.38 µM
SN12C renal
  GI50: 1.27 µM
  TGI: 7.95 µM
RPMI-8226 leukemia
  GI50: 0.54 µM
  TGI: 2.68 µM
SK-MEL-2 melanoma
  GI50: 1.23 µM
  TGI: 2.8 µM
UO-31 renal
  GI50: 0.799 µM
  TGI: 7.32 µM
COLO 205 colon
  GI50: 0.894 µM
  TGI: 1.74 µM
HCT-116 colon
  GI50: 0.649 µM
  TGI: 2.17 µM
OVCAR-5 ovarian
  GI50: 1.4 µM
  TGI: 9.17 µM
UACC-62 melanoma
  GI50: 0.948 µM
  TGI: 3.11 µM
K-562 leukemia
  GI50: 1.05 µM
  TGI: 10 µM
SNB-75 CNS
  GI50: 0.813 µM
  TGI: 4.18 µM
SF-295 CNS
  GI50: 1.01 µM
  TGI: 3.36 µM
MOLT-4 leukemia
  GI50: 1.2 µM
  TGI: 4 µM
HL-60(TB) leukemia
  GI50: 1.24 µM
  TGI: 3.63 µM
SNB-19 CNS
  GI50: 1.62 µM
  TGI: 18.2 µM
DU-145 prostate
  GI50: 1.96 µM
  TGI: 9.76 µM
NCI-H23 lung
  GI50: 1.41 µM
  TGI: 8.22 µM
HOP-62 NSCLC
  GI50: 1.09 µM
  TGI: 3.29 µM
HOP-92 NSCLC
  GI50: 0.17 µM
  TGI: 1.33 µM
M14 melanoma
  GI50: 0.913 µM
  TGI: 2.51 µM
A549 NSCLC
  GI50: 1.07 µM
  TGI: 7.6 µM
OVCAR-3 ovarian
  GI50: 0.68 µM
  TGI: 4.56 µM
SW-620 colon
  GI50: 1.35 µM
  TGI: 6.5 µM
OVCAR-4 ovarian
  GI50: 1.1 µM
  TGI: 4.86 µM
ACHN renal
  GI50: 1.14 µM
  TGI: 50 µM
NCI/ADR-RES ovarian
  GI50: 1.25 µM
  TGI: 13.3 µM
LOX IMVI melanoma
  GI50: 1.51 µM
  TGI: 5.64 µM
A498 renal
  GI50: 0.507 µM
  TGI: 3.17 µM
T-47D breast
  GI50: 1.07 µM
  TGI: 7.17 µM
NCI-H226 lung
  GI50: 1.33 µM
  TGI: 6.35 µM
MALME-3M melanoma
  GI50: 1.23 µM
  TGI: 4.2 µM
HT29 colon
  GI50: 1.29 µM
  TGI: 5.75 µM
786-0 renal
  GI50: 0.976 µM
  TGI: 2.74 µM
SK-MEL-5 melanoma
  GI50: 0.827 µM
  TGI: 1.7 µM
MDA-MB-435
  GI50: 0.959 µM
  TGI: 3.12 µM
SF-539 CNS
  GI50: 0.88 µM
  TGI: 2.25 µM
TK-10 renal
  GI50: 1.67 µM
  TGI: 10.9 µM
IGROV1 ovarian
  GI50: 2.08 µM
  TGI: 31.6 µM
NCI-H522 lung
  GI50: 0.837 µM
  TGI: 2.64 µM
CCRF-CEM leukemia
  GI50: 0.962 µM
  TGI: 3.11 µM
SK-MEL-28 melanoma
  GI50: 1.14 µM
  TGI: 4.18 µM
SF-268 CNS
  GI50: 1.59 µM
  TGI: 8.68 µM
PC-3 prostate
  GI50: 0.448 µM
  TGI: 2.92 µM
BT-549 breast
  GI50: 1.35 µM
  TGI: 4.59 µM
NCI-H460 lung
  GI50: 0.872 µM
  TGI: 4.9 µM
HS 578T breast
  GI50: 1.17 µM
  TGI: 5.52 µM
U251 CNS
  GI50: 0.731 µM
  TGI: 1.73 µM
RXF 393 renal
  GI50: 0.849 µM
  TGI: 2.4 µM
OVCAR-8 ovarian
  GI50: 1.13 µM
  TGI: 22.5 µM
CAKI-1 renal
  GI50: 1.07 µM
  TGI: 9.44 µM
MDA-MB-231 breast
  GI50: 0.85 µM
  TGI: 2.12 µM
UACC-257 melanoma
  GI50: 1.07 µM
  TGI: 3.74 µM
HCC-2998 colon
  GI50: 2.02 µM
  TGI: 9.18 µM
